Results: patent US11173174B2, “DNMT inhibitor as solid tumor therapeutic drug” (OHARA PHARMACEUTICAL CO., LTD., priority 2017, dated 2021)

Legend:
[1] = Distribution coefficient log P (n-octanol/PBS); format: physicochemical
From the text: The separation systems of silica gel column, separation yields, data obtained from instrumental analysis and distribution coefficients of the compounds (A) to (E) which are 5′-position dibenzyl monophosphates of 5-azacytidines synthesized according to the above synthetic methods A or B are shown as below.

[2] = system: DNA methyltransferase (DNMT); experiment: Screening system for DNMT inhibitory activity (secretory luciferase reporter in HML58-3 cells); format: cell-based; settings: 10 μM of sample, cultured for 4 days, cell supernatant on day 5, HML58-3 cells
From the text: The screening system for assessment of DNMT inhibitory activity used for 5′-position dibenzyl monophosphate derivatives of 5-azacytidine and its 2′-deoxy form is the evaluation system which we have developed recently (Epigenetics, 2016, Dec 9:0: Establishment of a high-throughput detection system for DNA demethylating agents, E. Okochi-Takada, N. Hattori et al.). It is a simple screening system for assessment of DNMT inhibitory activity which uses genetically modified colorectal cancer cells, wherein […] luciferase can be expressed when 5-position methylation of cytosine ring in expressed gene promoter region is inhibited by inhibiting DNA methyltransferase (DNMT).
The screening system for assessment of DNMT inhibitory activity used for 5′-position dibenzyl monophosphate derivatives of 5-azacytidine and its 2′-deoxy form is the evaluation system which we have developed recently (Epigenetics, 2016, Dec 9:0: Establishment of a high-throughput detection system for DNA demethylating agents, E. Okochi-Takada, N.
(§1) Hattori et al.). In the evaluation system, a vector in which a secretory luciferase gene was ligated in the downstream of the endogenous promoter CpG island region was introduced into colon cancer cells. When inhibitions of DNA methyltransferase (DNMT) or other DNA methylation maintenance mechanism occur, C-methylation of the promoter CpG island decreases and secretory luciferase is expressed. Since the luciferase is secretory type, it is a screening system for DNMT inhibitory activity by which the assessment can be conducted easily by collecting cell supernatant and adding the substrate of luciferin. That is, on the day before the sample addition, colon cancer cells HML58-3 that had been genetically modified were seeded in a 96-well cell culture plate. 10 μM of each sample was added to each of them, and cultured for 4 days. On day 5, the cell supernatant was collected and luciferase activity was determined. In addition, cell account for each sample was determined according to WST-8 method.

[3] = system: HCT116 cell (human colon cancer); experiment: Antitumor activity in HCT116 cell-transplanted mouse model; format: in vivo, nude mice; settings: intraperitoneal, twice a week, 6 times in total; 5.5, 11 and 22 mg/kg; observed until 28th day; vs vehicle (DMSO)
Description: (§2) In vivo assessment In order to investigate the antitumor activity of 5′-position dibenzyl monophosphate derivatives of 5-azacytidine and its 2′-deoxy form, a HCT116 cell-transplanted mouse model derived from human colon cancer was used. After nurturing nude mice (female, 5 weeks old), 5×10^6 cells were transplanted subcutaneously into right flank. From the grouping date, samples in various concentrations (DMSO solution) were administered intraperitoneally for 6 times in total, at a frequency of twice a week. The observation was performed until the 28th day after grouping, during which body weight and tumor diameter were measured at a frequency of once a week.

[4] = system: colon cancer cells HML58-3; experiment: Cell count by WST-8 method (cytotoxicity); format: cell-based; settings: 10 μM of sample, cultured for 4 days, HML58-3 cells
From the text: as §1

[5] = Body weight / safety in HCT116 cell-transplanted mouse model; format: in vivo, nude mice; settings: intraperitoneal, twice a week, 6 times in total; 5.5, 11 and 22 mg/kg; observed until 28th day
Description: as §2

Substance | Distribution coefficient log P [1] | Luciferase activity (DNMT inhibition) [2] | Antitumor activity (tumor volume) [3] | Cytotoxicity (cell count, WST-8 method) [4] | Safety / change in body weight [5]
O,O′-Di(4-fluoro)benzyl 5-aza-2′-deoxycytidylate [Compound (D)] | 1.40 | very strong luciferase activity | dose-dependent antitumor activity | low | highly safe
O,O′-Dibenzyl 5-aza-2′-deoxycytidylate [Compound (B)] | 1.15 | very strong luciferase activity | – | low | –
O,O′-Dibenzyl 5-azacytidylate [Compound (A)] | 0.83 | – | – | – | –
O,O′-Di(4-methyl)benzyl 5-aza-2′-deoxycytidylate [Compound (C)] | – | very strong luciferase activity | – | low | –
O,O′-Di(4-chloro)benzyl 5-aza-2′-deoxycytidylate [Compound (E)] | 2.44 | very strong luciferase activity | – | low | –
